Patent US20230257429A1, “PEPTIDE ADJUVANT FOR ITS THERAPEUTIC APPLICATIONS IN VIRAL AND TUMOUR VACCINE DEVELOPMENT AND CANCER IMMUNOTHERAPY AND AUTOIMMUNE DISEASE DIAGNOSIS AND TREATMENTS” (National University of Singapore, priority 2020, published 2023)
Entries after “also recorded” stand apart in the source; their conditions may differ. Values belong to the molecule of their own block, whether it stands above or below them.

Legend:
TLR2 = TLR2 (Homo sapiens, UniProt O60603); assay: TLR2 binding assay (ELISA plate); design: purchased R&D Systems; details: for soluble protein binding to coated TLR2: TLR2 coated 2 μg/ml, protein 0-20 μg/ml, anti-HA detection; for TLR2 binding at the highest concentration tested: peptide 200 μg/ml
Sequence of TLR2 (O60603 21-590 limits assumed): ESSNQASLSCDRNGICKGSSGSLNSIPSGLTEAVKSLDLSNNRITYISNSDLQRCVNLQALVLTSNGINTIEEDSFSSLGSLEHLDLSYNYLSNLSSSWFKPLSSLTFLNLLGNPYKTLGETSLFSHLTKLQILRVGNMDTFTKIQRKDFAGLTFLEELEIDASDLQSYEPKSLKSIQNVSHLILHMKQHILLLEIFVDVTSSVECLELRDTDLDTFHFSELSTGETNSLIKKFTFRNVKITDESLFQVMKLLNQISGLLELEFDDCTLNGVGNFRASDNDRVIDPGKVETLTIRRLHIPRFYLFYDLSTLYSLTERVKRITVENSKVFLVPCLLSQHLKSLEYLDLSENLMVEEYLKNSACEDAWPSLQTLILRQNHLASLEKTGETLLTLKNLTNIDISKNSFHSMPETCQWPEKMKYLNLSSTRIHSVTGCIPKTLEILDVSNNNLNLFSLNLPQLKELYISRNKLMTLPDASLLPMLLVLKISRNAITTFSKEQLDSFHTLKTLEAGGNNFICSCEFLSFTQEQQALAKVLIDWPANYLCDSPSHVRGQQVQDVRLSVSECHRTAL

PBMC [1] = assay: PBMC activation, TNFα and IL-1β ELISA; assay type: cell-based, human; details: for adjuvant (alarmin) activity compared with NCL-P2+G / adjuvant (alarmin) activity compared with NCL-P2: PBMC stimulated 24 hr; for adjuvant (alarmin) activity compared with NCL-P2+G: TNFα by ELISA; for adjuvant (alarmin) activity compared with NCL-P2: TNFα in media; for TNFα induction from PBMC by known CPPs / TNFα production from PBMC: 24 hr; for TNFα induction from PBMC by known CPPs: ELISA; for TNFα production from PBMC: recombinant protein coated on plates
Method: (§1) Buffy coat fractions were obtained from healthy blood donors at the Singapore Health Sciences Authority, with Institutional ethics approval, and PBMC were isolated using Ficoll-Paque (GE Healthcare). To isolate monocytes, PBMC were re-suspended to 1×10^7 cells/ml in the RPMI medium contained 5% (v/v) BCS and incubated for 1 hr in T75 flasks (20 ml/flask). Monocytes that adhered were harvested. To culture macrophages and DC [Cao, W., et al., Blood 107: 2777-2785, (2006), incorporated herein by reference], monocytes were resuspended to 1×10^6 cells/ml and cultured in 6-well plates (2 ml/well). Macrophages were cultured by adding M-CSF to 20 ng/ml and DC were cultured with 20 ng/ml GM-CSF and 40 ng/ml IL-4. M-CSF, GM-CSF and IL-4 were obtained from R&D Systems (Mineapolis, Minn.). Cells were cultured for 6 days with half of the media being replenished every two days.
Purified proteins in PBS (30 μg/ml) were coated in triplicates in 96-well plates (50 μl/well) for 12 hr and PBMC (3×10^6 cells/ml), monocytes (1×10^6 cells/ml), macrophages (0.5×10^6 cells/ml) or DC (0.5×10^6 cells/ml) were re-suspended in macrophage serum-free medium containing penicillin and streptomycin and cultured for 24 hr in these plates at 100 μl/well. Where TLR ligands were used to stimulate these cells, they were added to the media: LPS (500 ng/ml for DC and macrophages and 10 ng/ml for PMBC and monocytes, InvivoGen), flagellin (1 μg/ml, InvivoGen), lipoteichic acid (LTA, 10 μg/ml). Cell activation was determined by measuring TNFα and IL-1β in the culture media using ELISA kits (Invitrogen).

PBMC [2] = assay: Peptide binding to and penetration of PBMC, flow cytometry; assay type: cell-based, human; details: for CPP activity compared with NCL-P2 / CPP activity compared with P2+G: PBMC; for CPP activity compared with NCL-P2: peptide 200 μg/ml; for CPP activity compared with NCL-P2 / intracellular pool / cell penetration (CPP activity) in PBMC: 1 hr at 4° C.; for intracellular pool / cell penetration (CPP activity) in PBMC: fixed/permeabilized, streptavidin-AF488; for CPP activity compared with P2+G: 1 hr at 4° C. and 37° C., MFI
Method: PBMC re-suspended in 100 μl macrophage serum free media (3×10^6/ml) were incubated with different peptides (200 μg/ml). PBMC (100 μl) were incubated with the peptides for 1 hr at 37° C. or 4° C. Cells were washed twice in 2% FBS/PBS and incubated with streptavidin-AF488 and Zombie (NIR) Fixable viability stain-APC-Cy7 for 30 min at 4° C. Cells were then fixed with 1% PFA for 30 min at room temperature and analysed using the Fortessa analyser (BD). In some experiments, PBMC were, after incubation with peptides, incubated with Zombie (NIR) Fixable viability stain (APC-Cy7) for 30 min at 4° C. Cells were then fixed and permeabilized with BD CYTOFIX/CYTOPERM™ Kit for 20 min at 4° C., and then incubated with streptavidin-AF488 for 30 min at 4° C. In some experiments, PBMC were, after incubation with the peptides, stained with fluorescent mouse antibodies specific for monocytes (CD14/BV711), T cells (CD3/PerCP-Cy5-5) and B cells (CD19/Pacific blue). Cells were then stained with Zombie (NIR) Fixable viability stain-APC-Cy7 and streptavin-AF488, with or without membrane permeabilization. In these experiments, monocytes, T cells and B cells were separately gated to detect surface peptide binding and intracellular peptide penetration.

monocytes = assay: Monocyte activation, TNFα and IL-1β ELISA; assay type: cell-based, human; details: protein coated on plates, 24 hr, ELISA
Method: as §1
[…] Where TLR ligands were used to stimulate these cells, they were added to the media: LPS (500 ng/ml for DC and macrophages and 10 ng/ml for PMBC and monocytes, InvivoGen), flagellin (1 μg/ml, InvivoGen), lipoteichic acid (LTA, 10 μg/ml). Cell activation was determined by measuring TNFα and IL-1β in the culture media using ELISA kits (Invitrogen).

soluble protein binding to coated TLR2 (TLR2): not observed
His-tagged TLR2 binding to coated protein (TLR2; protein coated 10 μg/ml, TLR2 0.375-6.0 μg/ml): no binding
Molecule: NCL(649)-HA: NCL-HA C-terminal deletion mutant which lacks the GAR/RGG region

Molecule: GGFGGRGGGRGGRGGFGGRGGRGGFGGRGGFGGRGGRGG (NCL-P2+3G)
adjuvant (alarmin) activity compared with NCL-P2+G (PBMC [1]): no further improvement in adjuvant activity and instead it slightly reduced the high adjuvant activity
adjuvant (alarmin) activity compared with NCL-P2 (PBMC [1]): significantly higher alarmin activity
CPP activity compared with NCL-P2 (PBMC [2]): slightly higher CPP activity
CPP activity compared with NCL-P2 (PBMC [2]; listed as P2+3G): slightly increased their CPP activities

Molecule: GGFGGKGGGKGGKGGFGGKGKGGFGGKGGFKGGKGG (NCL-P2R/K)
adjuvant (alarmin) activity compared with NCL-P2 (PBMC [1]): lost CPP as well as alarmin activity
adjuvant (alarmin) activity compared with NCL-P2 (PBMC [1]; listed as R/K mutant of NCL-P2): lost its adjuvant activity
adjuvant (alarmin) activity compared with NCL-P2 (PBMC [1]; listed as SEQ ID NO: 20): completely abolished its adjuvant activity
CPP activity compared with NCL-P2 (PBMC [2]): lost CPP as well as alarmin activity
PBMC penetration at 37° C. or 4° C. (PBMC [2]; compared with NCL-P2): no longer penetrates PBMC

Molecule: NCL-P4: peptide representing the N-terminal half of NCL-P6 (RGGFGGRGGG; NCL-P4)
intracellular pool / cell penetration (CPP activity) in PBMC (PBMC [2]): all lacked cell penetration
TLR2 binding at the highest concentration tested (TLR2): no TLR2 binding

Molecule: GGFGARGGARGARGGFGARGARGGFGARGGFRGARGA (NCL-P2+G(G/A))
adjuvant (alarmin) activity compared with NCL-P2+G (PBMC [1]): lost the alarmin activity
CPP activity compared with P2+G (PBMC [2]): completely lost the CPP activity

Molecule: GGLGGRGGGRGGRGGLGGRGGRGGLGGRGGLRGGRGG (GGLGRRGGGRGGRGGLGGRGGRGGLGGRGGLRGGRGG; NCL-P2+G(F/L))
adjuvant (alarmin) activity compared with NCL-P2+G (PBMC [1]): stronger alarmin activity than P2+G; also recorded: retained the alarmin activity
CPP activity compared with P2+G (PBMC [2]): acquired higher CPP activities
CPP activity compared with NCL-P2 (PBMC [2]): slightly increased their CPP activities

Molecule: NCL-P5: peptide representing the C-terminal half of NCL-P6 (RGGRGGFGGRG; NCL-P5)
intracellular pool / cell penetration (CPP activity) in PBMC (PBMC [2]): all lacked cell penetration
TLR2 binding at the highest concentration tested (TLR2): low level of TLR2 binding

Molecule: GWTLNSAGYLLGKINLKALAALAKKIL [CPP6, reference compound]
TNFα induction from PBMC by known CPPs (PBMC [1]): No significant TNFα

soluble protein binding to coated TLR2 (TLR2): not observed
Molecule: NCL(522)-HA: NCL-HA C-terminal deletion mutant of 522 residues which lacks the GAR/RGG region

Molecule: MVTVLFRRLRIRRACGPPRVRV (CPP7) [reference compound]
TNFα induction from PBMC by known CPPs (PBMC [1]): No significant TNFα

Molecule: NCL-P7: short peptide corresponding to the non-repetitive C-terminal end of the 48-residue GAR/RGG region (FRGGRGG; NCL-P7)
intracellular pool / cell penetration (CPP activity) in PBMC (PBMC [2]): all lacked cell penetration

Molecule: GGYGGRGGGRGGRGGYGGRGRGGYGGRGGYRGGRGG (NCL-P2F/Y)
adjuvant (alarmin) activity compared with NCL-P2 (PBMC [1]): alarmin activity was diminished; also recorded: no significant alarmin activity
adjuvant (alarmin) activity compared with NCL-P2 (PBMC [1]; listed as SEQ ID NO: 23): markedly diminished its adjuvant activity
CPP activity compared with NCL-P2 (PBMC [2]): gained significant CPP activity; also recorded: have cell-penetrating activity

Molecule: GGFGPRGGPRGPRGGFGPRGPRGGFGPRGGFRGPRGP (NCL-P2+G(G/P))
adjuvant (alarmin) activity compared with NCL-P2+G (PBMC [1]): lost the alarmin activity
CPP activity compared with P2+G (PBMC [2]): completely lost the CPP activity

TLR2 binding to coated NCL-HA mutants (summary experiment) (TLR2; protein coated 10 μg/ml, TLR2 2 μg/ml): weak binding
Molecule: NCL(670)-HA: NCL-HA C-terminal deletion mutant of 670 residues with a residual GAR/RGG region
TNFα and IL-1β production from monocytes (monocytes): no longer stimulates monocytes; also recorded: apparently insufficient

Molecule: GGFGGRGGRGGFGGRGGRGGFGGRGGRGGFGGRGGRGG (NCL-P2+2G)
adjuvant (alarmin) activity compared with NCL-P2 (PBMC [1]): diminished rather than increased adjuvant activity; also recorded: slightly reduced alarmin activity

Molecule: GGIGGRGGGRGGRGGIGGRGGRGGIGGRGGIRGGRGG (NCL-P2+G(F/I))
adjuvant (alarmin) activity compared with NCL-P2+G (PBMC [1]): retained the alarmin activity
CPP activity compared with P2+G (PBMC [2]): acquired higher CPP activities
CPP activity compared with NCL-P2 (PBMC [2]): slightly increased their CPP activities

Molecule: GGRGGRGGGRGGRGGRGGRGRGGRGGRGGRRGGRGG (NCL-P2F/R)
adjuvant (alarmin) activity compared with NCL-P2 (PBMC [1]): losing significant alarmin activity; also recorded: no significant alarmin activity
adjuvant (alarmin) activity compared with NCL-P2 (PBMC [1]; listed as P2F/R): reduced alarmin activity; also recorded: diminished alarmin activities
adjuvant (alarmin) activity compared with NCL-P2 (PBMC [1]; listed as SEQ ID NO: 21): substantially reduced its adjuvant activity
increase in CPP activity compared with NCL-P2 (PBMC [2]): approx. 8 fold
CPP activity compared with NCL-P2 (PBMC [2]): gained substantial CPP activity; also recorded: have cell-penetrating activity
CPP activity compared with NCL-P2 (PBMC [2]; listed as P2F/R): strong CPP

Molecule: GGWGGRGGGRGGRGGWGGRGRGGWGGRGGWRGGRGG (NCL-P2F/W)
adjuvant (alarmin) activity compared with NCL-P2 (PBMC [1]): lost the alarmin activity; also recorded: no significant alarmin activity
adjuvant (alarmin) activity compared with NCL-P2 (PBMC [1]; listed as SEQ ID NO: 24): markedly diminished its adjuvant activity
CPP activity compared with NCL-P2 (PBMC [2]): retained the CPP activity; also recorded: have cell-penetrating activity

Molecule: RRRRNRTRRNRRRVRRRRRNRTRRNRRRVR (2xCPP4) [2×CPP4, reference compound]
alarmin activity compared with CPP4 (PBMC [1]; PBMC 24 hr, TNFα ELISA): Little increase in alarmin activity

B1: GAR1-HA: recombinant GAR1 with a C-terminal HA tag (protein, UniProt Q9NY12 1-217, looked up)
H/ACA ribonucleoprotein …: MSFRGGGRGGFNRGGGGGGFNRGGSSNHFRGGGGGGGGGNFRGGGRGGFGRGGGRGGFNKGQDQGPPERVVLLGEFLHPCEDDIVCKCTTDENKVPYFNAPVYLENKEQIGKVDEIFGQLRDFYFSVKLSENMKASSFKKLQKFYIDPYKLLPLQRFLPRPPGEKGPPRGGGRGGRGGGRGGGGRGGGRGGGFRGGRGGGGGGFRGGRGGGFRGRGH
modifications: C-terminal HA tag
TNFα production from PBMC (PBMC [1]): indeed activated PBMC

B2: FBRL: recombinant fibrillarin with C-terminal HA tag (protein)
chain: MKPGFSPRGGGFGGRGGFGDRGGRGGRGGFGGGRGRGGGFRGRGRGGGGGGGGGGGGGRGGGGFHSGGNRGRGRGGKRGNQSGKNVMVEPHRHEGVFICRGKEDALVTKNLVPGESVYGEKRVSISEGDDKIEYRAWNPFRSKLAAAILGGVDQIHIKPGAKVLYLGAASGTTVSHVSDIVGPDGLVYAVEFSHRSGRDLINLAKKRTNIIPVIEDARHPHKYRMLIAMVDVIFADVAQPDQTRIVALNAHTFLRNGGHFVISIKANCIDSTASAEAVFASEVKKMQQENMKPQEQLTLEPYERDHAVVVGVYRPPPKVKN
modifications: C-terminal HA tag; FBRL
TNFα production from PBMC (PBMC [1]): strongly induced TNFα production
